Assays:
ERα [1] = biological target: T1, ERα (Homo sapiens, UniProt P03372); assay: green PolarScreen ERα Competitor Assay (fluorescence polarization); format: binding
T1 construct: purchased Life Technologies
T1 sequence (P03372 1-595): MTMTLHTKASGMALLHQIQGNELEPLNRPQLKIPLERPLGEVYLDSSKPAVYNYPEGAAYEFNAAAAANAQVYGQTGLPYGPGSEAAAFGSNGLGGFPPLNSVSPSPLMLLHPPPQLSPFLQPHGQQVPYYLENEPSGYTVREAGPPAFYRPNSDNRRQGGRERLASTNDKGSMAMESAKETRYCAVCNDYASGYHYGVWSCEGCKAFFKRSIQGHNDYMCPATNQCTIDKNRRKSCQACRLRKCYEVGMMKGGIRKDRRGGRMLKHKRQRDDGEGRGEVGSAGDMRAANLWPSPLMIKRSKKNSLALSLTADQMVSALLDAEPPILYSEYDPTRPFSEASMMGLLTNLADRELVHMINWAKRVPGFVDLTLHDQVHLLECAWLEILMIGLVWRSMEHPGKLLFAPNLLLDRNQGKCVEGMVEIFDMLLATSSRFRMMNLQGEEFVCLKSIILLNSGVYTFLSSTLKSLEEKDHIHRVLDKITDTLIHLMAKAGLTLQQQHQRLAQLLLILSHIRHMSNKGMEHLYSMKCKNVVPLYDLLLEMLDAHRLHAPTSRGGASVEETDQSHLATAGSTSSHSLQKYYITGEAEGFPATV
Protocol: The ERα binding affinities of representative compounds predicted as ERα antagonists were measured by fluorescence polarization procedure using green PolarScreen™ ERα Competitor Assay kit (Life Technologies, CA, United States of America). Briefly, 75 nM ERα together with 4.5 nM fluormone was mixed with a series of concentrations of the test compounds in the assay buffer. Then, they were incubated for 2 h in room temperature in black low volume 384-well assay plate with NBS surface (Corning, NY, United States of America) for fluorescence polarization assay. Subsequently, the detection wavelength was set at excitation wavelength 485 nm and emission wavelength 535 nm with bandwidths of 25/20 nm in EnVision Workstation version 1.7 (PerkinElmer, MA, United States of America). 2104 EnVision® Multilabel Plate Reader was performed for the measurements.

ERα [2] = assay: Luciferase reporter gene assay for ERα in MCF-7 cells; format: cell-based, human; settings: MCF-7 cells transfected with ERE-luc reporter, three concentrations, 24 h
Protocol: Cell transfection and luciferase activity assay were utilized to investigate the effects of the compounds on ER transcriptional activation. The human breast cancer cell line MCF-7 was obtained from the Beijing Key Laboratory of Drug Target Research and Drug Screening, Chinese Academy of Medical Sciences (Beijing, China). Dulbecco's Modified Eagle's Medium (DMEM) culture medium containing 10% fetal calf serum (FBS), 100 U/mL penicillin, and 100 μg/mL streptomycin was used as complete culture medium. The culture conditions were at 37°C, saturated humidity, and 5% CO2. The culture medium was changed every day and when the confluence of cells reached 90%, MCF-7 cells were digested with 0.25% trypsin containing 0.02% EDTA and then cultured under the same culture conditions. MCF-7 cells in logarithmic growth phase were resuspended in 3 mL complete culture medium and were seeded on 24-well plates with a density of 1 × 10^5/well overnight. After incubation for 24 h, cells were grown to approximately 60–80% confluence and then washed by culture medium without serum. MCF-7 cells were cotransfected with the reporter plasmid pGL2-ERE3-luc. Based on the manufacturer's instructions, transfection was mediated by lipofectamine 3000 (Invitrogen). After incubation for 12 h, transfection medium was eliminated, and MCF-7 cells were treated with three concentrations of compounds for 24 h. Then, MCF-7 cells were washed with phosphate-buffered saline (PBS) and cell lysis was collected after oscillation with a low speed. Finally, the luciferase activity was determined by dual-luciferase reporter assay system (Promega) according to the product manual.

[3] = 75 nM ERα, 4.5 nM fluormone, 2 h, room temperature

IC50 (ERα [1]; [3]) [µM] | IC50 (ERα [1]; values in μM) [µM] | Compound | Antiestrogenic effects (ERα transactivation, luciferase activity) (ERα [2])
0.066 ± 0.0116 | – | O=C(OC1Cc2c(O)cc(O)cc2OC1c1cc(O)c(O)c(O)c1)c1cc(O)c(O)c(O)c1 (single isomer, unassigned; (-)) [EGCG, (−)-epigallocatechin-3-gallate] | –
0.968 ± 0.0709 | – | O=C1C[C@@H](c2ccc(O)cc2)Oc2cc(O)cc(O)c21 [Naringenin] | weak antiestrogenic effects
– | > 10 | COc1cc(C2Oc3cc([C@H]4Oc5cc(O)cc(O)c5C(=O)[C@@H]4O)ccc3OC2CO)ccc1O (stereo partly shown) [silibinin] | –

More lines, now with the values behind:

Compound | IC50 (ERα [1]; [3]) [µM] | IC50 (ERα [1]; values in μM) [µM] | Antiestrogenic effects (ERα transactivation, luciferase activity) (ERα [2])
O=c1c(-c2ccc(O)cc2)coc2cc(O)ccc12 [Daidzein] | – | – | antagonist activity was lower than that of genistein
O=c1oc2c(O)c(O)cc3c(=O)oc4c(O)c(O)cc1c4c23 [Ellagic acid] | 0.0626 ± 0.00934 | – | decrease the expression of ERα at high and medium concentrations
O=c1c(-c2ccc(O)cc2)coc2cc(O)cc(O)c12 [Genistein] | – | – | decrease the expression of the ERα remarkably at a dose-dependent manner
O=C(CCc1ccc(O)cc1)c1c(O)cc(O)cc1O [Phloretin] | 0.0745 ± 0.0242 | – | regulated the expression of ERα in MCF-7 cells in a dose-dependent way
C[C@H]1[C@H](C)CC[C@]2(C(=O)O)CC[C@]3(C)C(=CC[C@@H]4[C@@]5(C)CC[C@H](O)C(C)(C)[C@@H]5CC[C@]43C)[C@H]12 [Ursolic acid] | – | – | antiestrogenic effects only at high dose
COc1ccc(-c2cc(=O)c3c(O)cc(O[C@@H]4O[C@H](CO[C@@H]5O[C@@H](C)[C@H](O)[C@@H](O)[C@H]5O)[C@@H](O)[C@H](O)[C@H]4O)cc3o2)cc1O [diosmin] | – | > 10 | –
C[C@@H]1O[C@@H](O[C@H]2[C@H](Oc3cc(O)c4c(c3)O[C@H](c3ccc(O)cc3)CC4=O)O[C@H](CO)[C@@H](O)[C@@H]2O)[C@H](O)[C@H](O)[C@H]1O [naringin] | – | > 10 | –

— article PMC5971309, “Identification of Estrogen Receptor α Antagonists from Natural Products via In Vitro and In Silico Approaches” (Oxidative Medicine and Cellular Longevity, 2018)
